How the values were obtained:
Format in all cases: in vivo
[1] = system: buckwheat, wild (wild buckwheat, Polygonum convolvulus); test: Test D pre-/postemergence: buckwheat, wild
Excerpt: Seeds of plant species selected from bluegrass (annual bluegrass, Poa annua), blackgrass (Alopecurus myosuroides), canarygrass (Phalaris minor), chickweed (common chickweed, Stellaria media), galium (catchweed bedstraw, Galium aparine), bromegrass, downy (downy bromegrass, Bromus tectorum), field poppy (Papaver rhoeas), field violet (Viola arvensis), foxtail, green (green foxtail, Setaria viridis), deadnettle (henbit deadnettle, Lamium amplexicaule), ryegrass, Italian (Italian ryegrass, Lolium multiflorum), kochia (Kochia scoparia), lambsquarters (Chenopodium album), oilseed rape (Brassica napus), pigweed (Amaranthus retroflexus), Russian thistle (Salsola iberica), chamomile (scentless chamomile, Matricaria inodora), speedwell (bird's-eye speedwell, Veronica persica), barley, spring (spring barley, Hordeum vulgare), wheat, spring (spring wheat, Triticum aestivum), buckwheat, wild (wild buckwheat, Polygonum convolvulus), mustard, wild (wild mustard, Sinapis arvensis), oat, wild (wild oat, Avena fatua), radish, wild (wild radish, Raphanus raphanistrum), windgrass (Apera spica-venti), barley, winter (winter barley, Hordeum vulgare), and wheat, winter (winter wheat, Triticum aestivum) were planted into a silt loam soil and treated preemergence with test chemicals formulated in a non-phytotoxic solvent mixture which included a surfactant. At the same time, these same crop and weed species were planted in pots containing the planting medium comprising spaghnum peat moss, vermiculite, wetting agent and starter nutrients and treated with postemergence applications of the test chemicals formulated in the same manner. Plants ranged in height from 2 to 18 cm (1- to 4-leaf stage).
(§1) Treated plants and controls were maintained in a controlled growth environment for 14 to 21 days after which time all species were compared to controls and visually evaluated. Plant response ratings, summarized in Table D, are based on a scale of 0 to 100 where 0 is no effect and 100 is complete control. A dash (-) response means no test result.

[2] = system: waterhemp (common waterhemp, Amaranthus rudis); test: Test E pre-/postemergence: waterhemp; settings: scale 0 to 100
Excerpt: (§2) Seeds of plant species selected from corn (Zea mays), soybean (Glycine max), velvetleaf (Abutilon theophrasti), lambsquarters (Chenopodium album), poinsettia, wild (wild poinsettia, Euphorbia heterophylla), pigweed, palmer (palmer pigweed, Amaranthus palmeri), waterhemp (common waterhemp, Amaranthus rudis), smartweed (ladysthumb smartweed, Polygonum persicaria), surinam grass (Brachiaria decumbens), crabgrass, large (large crabgrass, Digitaria sanguinalis), crabgrass, Brazil (Brazilian crabgrass, Digitaria horizontalis), panicum, fall (fall panicum, Panicum dichotomiflorum), foxtail, giant (giant foxtail, Setaria faberii), foxtail, green (green foxtail, Setaria viridis), goosegrass (Eleusine indica), johnsongrass (Sorghum halepense), ragweed (common ragweed, Ambrosia elation), barnyardgrass (Echinochloa crus-galli), sandbur (southern sandbur, Cenchrus echinatus), arrowleaf sida (Sida rhombifolia), ryegrass, Italian (Italian ryegrass, Lolium multiflorum), dayflower, (VA) (Virginia dayflower, Commelina virginica), field bindweed (Convolvulus arvensis), cocklebur (common cocklebur, Xanthium strumarium), morningglory (Ipomoea coccinea), nightshade (eastern black nightshade, Solanum ptycanthum), kochia (Kochia scoparia), nutsedge, yellow (yellow nutsedge, Cyperus esculentus) and beggarticks (hairy beggarticks, Bidens pilosa) were planted into a silt loam soil and treated preemergence with test chemicals formulated in a non-phytotoxic solvent mixture which included a surfactant. At the same time, plants selected from these crop and weed species were planted in pots containing a growing medium comprising spaghnum peat moss, vermiculite, wetting agent and starter nutrients and treated with postemergence applications of some of the test chemicals formulated in the same manner. Plants ranged in height from 2 to 18 cm for postemergence treatments (1- to 4-leaf stage).
as §1, with “greenhouse” for “controlled growth environment”, “days,” for “days”, “E,” for “D,”

[3] = system: field poppy (Papaver rhoeas); test: Test D pre-/postemergence: field poppy
How it was run: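 We sprayed chemicals in a surfactant-containing solvent onto silt loam at planting (preemergence) and onto 1- to 4-leaf seedlings (postemergence). Fourteen to 21 days later, each species was rated visually from 0 to 100 relative to controls.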

[4] = system: barnyardgrass (Echinochloa crus-galli); test: Test E pre-/postemergence: barnyardgrass; settings: scale 0 to 100
Excerpt: as §2
as §1, with “greenhouse” for “controlled growth environment”, “days,” for “days”, “E,” for “D,”

[5] = system: surinam grass (Brachiaria decumbens); test: Test E pre-/postemergence: surinam grass; settings: Preemergence, scale 0 to 100
Excerpt: as §2
as §1, with “greenhouse” for “controlled growth environment”, “days,” for “days”, “E,” for “D,”

[6] = Postemergence, 31 g ai/ha, scale 0 to 100 (0 no effect, 100 complete control)
[7] = Postemergence, 62 g ai/ha, scale 0 to 100 (0 no effect, 100 complete control)
[8] = Postemergence, 125 g ai/ha, scale 0 to 100, 0 no effect, 100 complete control
[9] = Postemergence, 250 g ai/ha, scale 0 to 100 (0 no effect, 100 complete control)
[10] = Preemergence, 31 g ai/ha, scale 0 to 100, 0 no effect, 100 complete control
[11] = Preemergence, 62 g ai/ha, scale 0 to 100
[12] = Preemergence, 125 g ai/ha, scale 0 to 100
[13] = Preemergence, 250 g ai/ha, scale 0 to 100
[14] = Postemergence, 16 g ai/ha, scale 0 to 100

FC(F)(F)COc1nn(-c2ccc(C(F)(F)F)cc2)nc1Cc1ccnc(C(F)(F)F)c1 [Compound 14, 4-[[5-(2,2,2-trifluoroethoxy)-2-[4-(trifluoromethyl)phenyl]-2H-1,2,3-triazol-4-yl]methyl]-2-(trifluoromethyl)pyridine]
Plant response rating: Buckwheat, Wild [1, 6]: 0
Plant response rating: Buckwheat, Wild [1, 7]: 40
Plant response rating: Buckwheat, Wild [1, 8]: 60
Plant response rating: Buckwheat, Wild [1, 9]: 100
Plant response rating, Buckwheat, Wild [1, 10]: 0
Plant response rating, Buckwheat, Wild [1, 11]: 30
Plant response rating, Buckwheat, Wild [1, 12]: 35
Plant response rating, Buckwheat, Wild [1, 13]: 40
Plant response rating: Waterhemp ([2]; Preemergence, 16 g ai/ha): 90
Plant response rating: Waterhemp ([2]; Preemergence, 31 g ai/ha): 98
Plant response rating: Waterhemp ([2]; Preemergence, 62 g ai/ha): 100
Plant response rating: Waterhemp ([2]; Preemergence, 125 g ai/ha): 100
Plant response rating: Waterhemp ([2]; Preemergence, 250 g ai/ha): 100
Plant response rating: Field Poppy [3, 6]: 100
Plant response rating: Field Poppy [3, 7]: 100
Plant response rating: Field Poppy [3, 8]: 100
Plant response rating: Field Poppy [3, 9]: 100
Plant response rating: Barnyardgrass ([4]; Preemergence, 16 g ai/ha): 5
Plant response rating: Barnyardgrass ([4]; Preemergence, 31 g ai/ha): 15
Plant response rating: Barnyardgrass ([4]; Preemergence, 62 g ai/ha): 35
Plant response rating: Barnyardgrass ([4]; Preemergence, 125 g ai/ha): 60
Plant response rating: Barnyardgrass ([4]; Preemergence, 250 g ai/ha): 60
Plant response rating: Surinam Grass ([5]; 16 g ai/ha): 5
Plant response rating: Surinam Grass ([5]; 31 g ai/ha): 10
Plant response rating: Surinam Grass ([5]; 62 g ai/ha): 25
Plant response rating: Surinam Grass ([5]; 125 g ai/ha): 65
Plant response rating: Surinam Grass ([5]; 250 g ai/ha): 100

COc1nn(-c2ccc(C(F)(F)F)cc2)nc1Cc1ccnc(C(F)(F)F)c1 [Compound 15, 4-[[5-methoxy-2-[4-(trifluoromethyl)phenyl]-2H-1,2,3-triazol-4-yl]methyl]-2-(trifluoromethyl)pyridine]
Plant response rating: Buckwheat, Wild [1, 6]: 30
Plant response rating: Buckwheat, Wild [1, 7]: 30
Plant response rating: Buckwheat, Wild [1, 8]: 70
Plant response rating: Buckwheat, Wild [1, 9]: 100
Plant response rating, Buckwheat, Wild [1, 14]: 0
Plant response rating, Buckwheat, Wild [1, 10]: 0
Plant response rating, Buckwheat, Wild [1, 11]: 100
Plant response rating, Buckwheat, Wild [1, 12]: 100
Plant response rating, Buckwheat, Wild [1, 13]: 100
Plant response rating: Waterhemp ([2]; Preemergence, 16 g ai/ha): 98
Plant response rating: Waterhemp ([2]; Preemergence, 31 g ai/ha): 100
Plant response rating: Waterhemp ([2]; Preemergence, 62 g ai/ha): 100
Plant response rating: Waterhemp ([2]; Preemergence, 125 g ai/ha): 100
Plant response rating: Waterhemp ([2]; Preemergence, 250 g ai/ha): 100
Plant response rating: Field Poppy [3, 6]: 100
Plant response rating: Field Poppy [3, 7]: 100
Plant response rating: Field Poppy [3, 8]: 100
Plant response rating: Field Poppy [3, 9]: 100
Plant response rating, Field Poppy [3, 14]: 100
Plant response rating: Barnyardgrass ([4]; Preemergence, 16 g ai/ha): 10
Plant response rating: Barnyardgrass ([4]; Preemergence, 31 g ai/ha): 50
Plant response rating: Barnyardgrass ([4]; Preemergence, 62 g ai/ha): 85
Plant response rating: Barnyardgrass ([4]; Preemergence, 125 g ai/ha): 98
Plant response rating: Barnyardgrass ([4]; Preemergence, 250 g ai/ha): 100
Plant response rating: Surinam Grass ([5]; 16 g ai/ha): 5
Plant response rating: Surinam Grass ([5]; 31 g ai/ha): 50
Plant response rating: Surinam Grass ([5]; 62 g ai/ha): 75
Plant response rating: Surinam Grass ([5]; 125 g ai/ha): 98
Plant response rating: Surinam Grass ([5]; 250 g ai/ha): 100

Cc1nn(-c2ccc(C(F)(F)F)cn2)nc1Oc1ccnc(C(F)(F)F)c1 [Compound 23]
Plant response rating: Buckwheat, Wild [1, 6]: 25
Plant response rating: Buckwheat, Wild [1, 7]: 35
Plant response rating: Buckwheat, Wild [1, 8]: 40
Plant response rating: Buckwheat, Wild [1, 9]: 75
Plant response rating, Buckwheat, Wild [1, 14]: 20
Plant response rating: Waterhemp ([2]; Preemergence, 16 g ai/ha): 0
Plant response rating: Waterhemp ([2]; Preemergence, 31 g ai/ha): 80
Plant response rating: Waterhemp ([2]; Preemergence, 62 g ai/ha): 80
Plant response rating: Waterhemp ([2]; Preemergence, 125 g ai/ha): 98
Plant response rating: Waterhemp ([2]; Preemergence, 250 g ai/ha): 100
Plant response rating: Field Poppy [3, 6]: 70
Plant response rating: Field Poppy [3, 7]: 90
Plant response rating: Field Poppy [3, 8]: 100
Plant response rating: Field Poppy [3, 9]: 100
Plant response rating, Field Poppy [3, 14]: 75
Plant response rating: Barnyardgrass ([4]; Preemergence, 16 g ai/ha): 0
Plant response rating: Barnyardgrass ([4]; Preemergence, 31 g ai/ha): 0
Plant response rating: Barnyardgrass ([4]; Preemergence, 62 g ai/ha): 0
Plant response rating: Barnyardgrass ([4]; Preemergence, 125 g ai/ha): 20
Plant response rating: Barnyardgrass ([4]; Preemergence, 250 g ai/ha): 20
Plant response rating: Surinam Grass ([5]; 16 g ai/ha): 0
Plant response rating: Surinam Grass ([5]; 31 g ai/ha): 0
Plant response rating: Surinam Grass ([5]; 62 g ai/ha): 10
Plant response rating: Surinam Grass ([5]; 125 g ai/ha): 20
Plant response rating: Surinam Grass ([5]; 250 g ai/ha): 20

Cc1nn(-c2ccc(C(F)(F)F)cc2)nc1Oc1ccnc(C(F)(F)F)c1 [Compound 120]
Plant response rating: Buckwheat, Wild [1, 6]: 75
Plant response rating: Buckwheat, Wild [1, 7]: 85
Plant response rating: Buckwheat, Wild [1, 8]: 95
Plant response rating: Buckwheat, Wild [1, 9]: 98
Plant response rating, Buckwheat, Wild [1, 14]: 50
Plant response rating, Buckwheat, Wild [1, 11]: 10
Plant response rating, Buckwheat, Wild [1, 12]: 70
Plant response rating, Buckwheat, Wild [1, 13]: 100
Plant response rating: Waterhemp ([2]; Postemergence, 8 g ai/ha): 30
Plant response rating: Waterhemp ([2]; Postemergence, 16 g ai/ha): 50
Plant response rating: Waterhemp ([2]; Postemergence, 31 g ai/ha): 65
Plant response rating: Waterhemp ([2]; Postemergence, 62 g ai/ha): 75
Plant response rating: Waterhemp ([2]; Postemergence, 125 g ai/ha): 75
Plant response rating: Waterhemp ([2]; Preemergence, 16 g ai/ha): 95
Plant response rating: Waterhemp ([2]; Preemergence, 31 g ai/ha): 98
Plant response rating: Waterhemp ([2]; Preemergence, 62 g ai/ha): 100
Plant response rating: Waterhemp ([2]; Preemergence, 125 g ai/ha): 100
Plant response rating: Waterhemp ([2]; Preemergence, 250 g ai/ha): 100
Plant response rating: Field Poppy [3, 6]: 100
Plant response rating: Field Poppy [3, 7]: 100
Plant response rating: Field Poppy [3, 8]: 100
Plant response rating: Field Poppy [3, 9]: 100
Plant response rating, Field Poppy [3, 14]: 100
Plant response rating, Field Poppy ([3]; Preemergence, 16 g ai/ha, scale 0 to 100, 0 no effect, 100 complete control): 0
Plant response rating, Field Poppy [3, 10]: 80
Plant response rating, Field Poppy [3, 11]: 80
Plant response rating, Field Poppy [3, 12]: 100
Plant response rating, Field Poppy [3, 13]: 100
Plant response rating: Barnyardgrass ([4]; Postemergence, 8 g ai/ha): 10
Plant response rating: Barnyardgrass ([4]; Postemergence, 16 g ai/ha): 10
Plant response rating: Barnyardgrass ([4]; Postemergence, 31 g ai/ha): 20
Plant response rating: Barnyardgrass ([4]; Postemergence, 62 g ai/ha): 25
Plant response rating: Barnyardgrass ([4]; Postemergence, 125 g ai/ha): 30
Plant response rating: Barnyardgrass ([4]; Preemergence, 16 g ai/ha): 0
Plant response rating: Barnyardgrass ([4]; Preemergence, 31 g ai/ha): 0
Plant response rating: Barnyardgrass ([4]; Preemergence, 62 g ai/ha): 5
Plant response rating: Barnyardgrass ([4]; Preemergence, 125 g ai/ha): 25
Plant response rating: Barnyardgrass ([4]; Preemergence, 250 g ai/ha): 100
Plant response rating: Surinam Grass ([5]; 16 g ai/ha): 0
Plant response rating: Surinam Grass ([5]; 31 g ai/ha): 35
Plant response rating: Surinam Grass ([5]; 62 g ai/ha): 35
Plant response rating: Surinam Grass ([5]; 125 g ai/ha): 90
Plant response rating: Surinam Grass ([5]; 250 g ai/ha): 100

— US9302999B2, “Substituted triazoles as herbicides” (E. I. DU PONT DE NEMOURS AND COMPANY, priority 2012, dated 2016)
